Assays:
[1] = Cell viability used to select the allicin concentration; assay type: cell-based; conditions: dog, MDCK-chAbcb1 or MDCK-chAbcg2 cells
chicken BCRP = test: Bidirectional transport experiment in MDCK-chAbcg2 cells; assay type: in vitro ADME; conditions: net efflux ratio (NER), florfenicol 20 μM, without allicin
[2] = Pharmacokinetic analyses of sulfadiazine and florfenicol in broilers; assay type: in vivo; conditions: florfenicol 20 mg/kg oral, 4-wk broilers

efflux ratio at 20 μM (chicken BCRP)	CLz ([2]; Allicin (32 mg/kg) for 4 wk) [mL/min/kg]	Vz ([2]; Allicin (32 mg/kg) for 4 wk) [L/kg]	CLz ([2]; Control (no allicin)) [mL/min/kg]	Vz ([2]; Control (no allicin)) [L/kg]	Compound	viability at 5 μM [1] [%]
–	–	–	–	–	C=CCS[S+]([O-])CC=C (stereo not drawn) [allicin, Allicin]	> 90
> 2	18.8 ± 8	7.61 ± 2.89	25.2 ± 8.17	8.57 ± 3.90	CS(=O)(=O)c1ccc([C@@H](O)[C@@H](CF)NC(=O)C(Cl)Cl)cc1 [florfenicol]	–

Reference: PMC9189214 (Poultry Science, 2022)
